# Measurements: patent US10363231B2, “Compounds and methods of treating ocular disorders” (CASE WESTERN RESERVE UNIVERSITY, priority 2014, dated 2019)
# Assays:
# LRAT = target: T1, LRAT (Bos taurus, UniProt Q9BGL2); experiment: LRAT activity assay with bovine RPE microsomes (esterification of the corresponding primary alcohols); type: biochemical; settings: for LRAT Substrate: percentage of the corresponding primary alcohol esterified by LRAT in 1 h at 37° C, 10 μM, RPE microsomes
# T1 construct: incubated with RPF microsomes that served as a source of LRAT enzymatic activity; from tissue; host or cells: bovine retinal pigment epithelium (RPE) microsomes
# T1 sequence (Q9BGL2 1-230): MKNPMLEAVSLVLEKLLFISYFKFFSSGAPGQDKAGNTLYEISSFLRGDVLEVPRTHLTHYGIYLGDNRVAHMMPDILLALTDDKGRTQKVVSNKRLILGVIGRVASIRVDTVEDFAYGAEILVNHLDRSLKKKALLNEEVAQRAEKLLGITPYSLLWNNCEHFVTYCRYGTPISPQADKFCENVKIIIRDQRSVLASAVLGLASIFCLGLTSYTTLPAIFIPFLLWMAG
# Description: Bovine RPE microsomes were isolated from RPE homogenates by differential centrifugation as previously described. The resulting microsomal precipitate was resuspended in 10 mM Bis-Tris propane/HCl buffer, pH 7.4, to achieve a total protein concentration of […]. Then the mixture was placed in a quartz cuvette and irradiated for 6 min at 4° C. with a ChromatoUVE transilluminator (model TM-15; UVP) to eliminate residual retinoids. After irradiation, DTT was added to the RPE microsomal mixture to achieve a final concentration of 5 mM.
# Two μl of a synthesized primary alcohol or amine dissolved in DMF (final concentration 10 μM) and 2 μl of 1,2-diheptanoyl-sn-glicerol-3-phosphocholine (water, final concentration 1 mM) were added to 200 μl of 10 mM Bis-Tris propane/HCl buffer, pH 7.4, containing 150 μg of RPE microsomes and 1% (v/w) BSA. The resulting mixture was incubated at 37° C. for 1 h. The reaction was quenched by adding 300 μl of methanol. Most reaction products were extracted with 300 μl of hexanes, except for products from the QEA-C-006 and QEA-G groups which were extracted by adding 300 μl of ethyl acetate and 300 μl of water.
# Reaction products were separated and quantified by normal phase HPLC (Agilent Sil 5 μm, 4.6 mm×250 mm) in stepwise gradient of ethyl acetate in hexanes (0-15 min, 10%; 20-30 min, 30%) at a flow rate of 1.4 ml·min^−1.
# The properties of retinoid derivatives were examined by two standard enzymatic tests, the […] and retinoid isomerization assays. To identify substrates of LRAT, aldehydes were reduced by sodium borohydrate to their corresponding primary alcohols that then were directly used in the esterification assay (FIG. 2B).
# The alcohols were incubated with RPF microsomes that served as a source of LRAT enzymatic activity. Products of the enzymatic reaction as well as the remaining substrates were extracted with organic solvents and analyzed by HPLC. The ratio between a substrate and its esterified form was used to measure enzymatic activity efficiency, based on equivalent UV absorption of the substrate and product at their specific UV maxim wavelengths. Compounds classified as ‘good’ LRAT substrates converted at least 50% of their available alcohol substrates into corresponding esters under these experimental conditions, whereas marginal LRAT substrates were converted at less than 5%. Alcohols with a 5-50% conversion ratio were classified as weak substrates. Among 35 tested compounds, 23 were categorized as good and 9 as weak substrates; 3 compounds were not esterified by LRAT (Table 1 and FIG. 2C). […] Moreover, breaking double bond conjugation along the polyene chain or deletion of a C9 and/or a C13 methyl group also was allowed.
# WT mice = experiment: Visual chromophore recovery assay (inhibition of the visual cycle in vivo); settings: for inhibition of the recovery of visual chromophore: 24 h after gavage; for recovery of 11-cis-retinal in the eye, of the pre-bleached level: at 6 h after bleaching
# Abca4^−/−Rdh8^−/− mice = experiment: Light-induced acute retinal degeneration in Abca4−/−Rdh8−/− mice (OCT, 11-cis-retinal, ERG); type: in vivo; settings: 2 mg; dark 24 h, then 10,000 lux 1 h
compound,measurement,setting,value
"CC1=C(/C=C/C(C)=C/C=C/C(C)=C/CN)C(C)(C)CCC1 [QEA-A-001-NH2, retinylamine]",LRAT Substrate,LRAT,100%
same,inhibition of the recovery of visual chromophore,WT mice; 0.1 mg,about 40%
same,inhibition of the recovery of visual chromophore,WT mice; 0.2 mg,~80%
same,recovered 11-cis-retinal,"WT mice; 0.2 mg, day 3 after administration",61±2.2%
same,inhibitory effect on 11-cis-retinal regeneration,"WT mice; 0.2 mg, day 7",nearly disappeared
same,"recovery of 11-cis-retinal in the eye, of the pre-bleached level","WT mice; 0.2 mg, light 2 h after administration",50±13%
same,"recovery of 11-cis-retinal in the eye, of the pre-bleached level","WT mice; 0.2 mg, light 24 h after administration",22±5.0%
same,inhibition of the recovery of visual chromophore,WT mice; 0.5 mg,~95%
same,recovery of 11-cis-retinal,"WT mice; 0.5 mg, 7 days after administration",56±9.1%
same,time point with the strongest inhibition of the retinoid cycle,"WT mice; 0.1 to 0.5 mg, gavage 2 h to 7 days before light",24 h
same,duration of inhibition of the retinoid cycle,"WT mice; gavage 2 h to 7 days before light, 11-cis-retinal 6 h after bleaching",more than 7 days
same,protection of ONL (averaged ONL thickness by OCT),Abca4^−/−Rdh8^−/− mice,protected
CC(/C=C/C=C(/C=C/C1=CCCCC1)C(C)(C)C)=C\CN [QEA-B-001-NH2],LRAT substrate class,LRAT; conversion of the alcohol to ester,good (Compounds classified as ‘good’ LRAT substrates converted at least 50% of their available alcohol substrates into corresponding esters)
same,LRAT Substrate,LRAT,80%
